Test results published in patent US5811241A, “Method for preparing and identifying N-substitued 1,4-piperazines and N-substituted 1,4-piperazinediones” (Cortech, Inc., priority 1995, dated 1998).

Molecular target: T1, human BK2 receptor (Homo sapiens, UniProt P30411)
T1 construct: expressed in transfected cells; host or cells: CHO-K1 (ATCC)
T1 sequence (P30411 1-391): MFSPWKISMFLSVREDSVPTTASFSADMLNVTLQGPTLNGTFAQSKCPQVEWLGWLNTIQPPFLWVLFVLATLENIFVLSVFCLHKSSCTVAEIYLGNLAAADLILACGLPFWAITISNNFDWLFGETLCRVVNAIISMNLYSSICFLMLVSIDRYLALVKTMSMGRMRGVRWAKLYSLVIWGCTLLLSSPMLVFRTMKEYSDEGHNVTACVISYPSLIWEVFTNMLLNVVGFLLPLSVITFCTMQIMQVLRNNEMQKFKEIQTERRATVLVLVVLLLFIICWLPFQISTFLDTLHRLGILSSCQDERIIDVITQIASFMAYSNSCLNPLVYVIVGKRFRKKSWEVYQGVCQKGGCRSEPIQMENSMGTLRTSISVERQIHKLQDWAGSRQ
Experiment: Bradykinin 2 human receptor clone binding assay (inhibition of radio-labeled bradykinin binding)
Conditions: compound resynthesized in pure form, read-out: IC50, BK binding inhibition
Protocol: Bradykinin 2 and Bradykinin 1 Human Receptor Clone Binding Assays
Human bradykinin B2 receptor was expressed in CHO-K1 (ATCC) cells. Preparation of membranes for binding assay was carried out by scraping cells from roller bottles in ice cold PBS and centrifuging at 1000× g, at 4° C. for 15 minutes. The supernatant was discarded and pellet resuspended in Buffer A consisting of 25 mM TES (pH 6.8) with 2 uM 1,10-phenanthroline, and centrifuged at 27,000× g for 15 min. The pellet was washed once using the same buffer and centrifugation parameters. The final pellet was resuspended in Buffer B (Buffer A with 2 uM captopril, 140 ug/ml bacitracin, 0.1% BSA), and stored in 1 ml aliquot, frozen at -70° C. until needed.
B2 Binding assays were performed by incubating human clone membrane solution with ^3 H-bradykinin (final concentration 0.3 nM) with or without test compounds in assay buffer (Buffer B with 1 mM dithiothreitol), at room temperature, for 45 minutes, at a final volume of 315 ul. All test compound dilutions were done in triplicate. Assays were harvested by quick filtration in a Tomtec Harvester 96, with ice-cold wash buffer consisting of 10 mM Tris/HCl, pH 7.5, 100 mM NaCl,0.02% BSA, onto Wallec printed glassfiber Filtermat "B", which had been pre-soaked with 0.1% PEI and previously air-dried. Filtermats were counted in 9.5 ml Wallec Beta-Plate Scint, in Wallec 1450 MicroBeta Counter.

IC50	Structure (SMILES)
4.1 µM	N=C(N)NCCCCCCN1CC(=O)N(Cc2ccc3ccccc3c2)C(C2Cc3ccccc3C2)C1=O (racemic) [Example 60]
13 µM	N=C(N)NCCCCCCCN1CC(=O)N(Cc2ccc(-c3ccccc3)cc2)C(C2Cc3ccccc3C2)C1=O (racemic) [Example 61]
